Measurements published in ChEMBL document CHEMBL4190297, “Cafestol, a Bioactive Substance in Coffee, Has Antidiabetic Properties in KKAy Mice” (J Nat Prod, 2017).
The source made the active and inactive calls.

Columns and labels:
Mus musculus [1] = organism: Mus musculus; assay: Effect on GLUT2 mRNA expression levels in muscle of KK-Ay diabetic mouse model at 0.4 to 1.1 mg added daily to normal chow pellets for 10 weeks by qRT-PCR analysis; type: functional, organism-based
Mus musculus [2] = organism: Mus musculus; assay: Effect on Gcgr mRNA expression levels in muscle of KK-Ay diabetic mouse model at 0.4 to 1.1 mg added daily to normal chow pellets for 10 weeks by qRT-PCR analysis; type: functional, organism-based
Mus musculus [3] = organism: Mus musculus; assay: Induction of 3.3 mM glucose-stimulated insulin secretion in pancreatic islets isolated from KK-Ay diabetic mouse model at 1.1 mg added daily to normal chow pellets for 10 weeks followed by glucose stimulation of isolated pancreatic islets for 1 hr by radioimmunoassay relative to control; type: functional
Mus musculus [4] = organism: Mus musculus; assay: Effect on PKCdelta mRNA expression levels in muscle of KK-Ay diabetic mouse model at 0.4 to 1.1 mg added daily to normal chow pellets for 10 weeks by qRT-PCR analysis; type: functional, organism-based
Mus musculus [5] = organism: Mus musculus; assay: Effect on FAS mRNA expression levels in liver of KK-Ay diabetic mouse model at 0.4 to 1.1 mg added daily to normal chow pellets for 10 weeks by qRT-PCR analysis; type: functional, organism-based
Mus musculus [6] = organism: Mus musculus; assay: Effect on JNK1 mRNA expression levels in muscle of KK-Ay diabetic mouse model at 0.4 to 1.1 mg added daily to normal chow pellets for 10 weeks by qRT-PCR analysis; type: functional, organism-based
Mus musculus [7] = organism: Mus musculus; assay: Effect on 18s rRNA expression levels in adipose tissue of KK-Ay diabetic mouse model at 0.4 to 1.1 mg added daily to normal chow pellets for 10 weeks by qRT-PCR analysis; type: functional, organism-based
Mus musculus [8] = organism: Mus musculus; assay: Effect on AMPKalpha2 mRNA expression levels in muscle of KK-Ay diabetic mouse model at 0.4 to 1.1 mg added daily to normal chow pellets for 10 weeks by qRT-PCR analysis; type: functional, organism-based
Mus musculus [9] = organism: Mus musculus; assay: Toxicity in KK-Ay diabetic mouse model assessed as effect on body weight at 1.1 mg added daily to normal chow pellets for 4 weeks; type: organism-based; conditions: in vivo, po, 672 h
Mus musculus [10] = organism: Mus musculus; assay: Effect on IRS2 mRNA expression levels in liver of KK-Ay diabetic mouse model at 0.4 to 1.1 mg added daily to normal chow pellets for 10 weeks by qRT-PCR analysis; type: functional, organism-based
Mus musculus [11] = organism: Mus musculus; assay: Effect on Pi3K mRNA expression levels in adipose tissue of KK-Ay diabetic mouse model at 0.4 to 1.1 mg added daily to normal chow pellets for 10 weeks by qRT-PCR analysis; type: functional, organism-based
Mus musculus [12] = organism: Mus musculus; assay: Effect on GYS2 mRNA expression levels in liver of KK-Ay diabetic mouse model at 0.4 to 1.1 mg added daily to normal chow pellets for 10 weeks by qRT-PCR analysis; type: functional, organism-based
Mus musculus [13] = organism: Mus musculus; assay: Effect on 18s rRNA expression levels in liver of KK-Ay diabetic mouse model at 0.4 to 1.1 mg added daily to normal chow pellets for 10 weeks by qRT-PCR analysis; type: functional, organism-based
Mus musculus [14] = organism: Mus musculus; assay: Effect on SOD1 mRNA expression levels in adipose tissue of KK-Ay diabetic mouse model at 0.4 to 1.1 mg added daily to normal chow pellets for 10 weeks by qRT-PCR analysis; type: functional, organism-based
Mus musculus [15] = organism: Mus musculus; assay: Effect on Acaca mRNA expression levels in liver of KK-Ay diabetic mouse model at 0.4 to 1.1 mg added daily to normal chow pellets for 10 weeks by qRT-PCR analysis; type: functional, organism-based
Mus musculus [16] = organism: Mus musculus; assay: Antidiabetic activity in KK-Ay diabetic mouse model assessed as increase in insulin levels in plasma at 0.4 mg added daily to normal chow pellets for 10 weeks by radioimmunoassay; type: functional, organism-based
Mus musculus [17] = organism: Mus musculus; assay: Effect on PPARgamma mRNA expression levels in liver of KK-Ay diabetic mouse model at 0.4 to 1.1 mg added daily to normal chow pellets for 10 weeks by qRT-PCR analysis; type: functional, organism-based
Mus musculus [18] = organism: Mus musculus; assay: Effect on SOD2 mRNA expression levels in muscle of KK-Ay diabetic mouse model at 0.4 to 1.1 mg added daily to normal chow pellets for 10 weeks by qRT-PCR analysis; type: functional, organism-based
Mus musculus [19] = organism: Mus musculus; assay: Effect on FABP4 mRNA expression levels in liver of KK-Ay diabetic mouse model at 0.4 to 1.1 mg added daily to normal chow pellets for 10 weeks by qRT-PCR analysis; type: functional, organism-based
Mus musculus [20] = organism: Mus musculus; assay: Effect on Acaca mRNA expression levels in adipose tissue of KK-Ay diabetic mouse model at 0.4 to 1.1 mg added daily to normal chow pellets for 10 weeks by qRT-PCR analysis; type: functional, organism-based
Mus musculus [21] = organism: Mus musculus; assay: Effect on Pi3K mRNA expression levels in muscle of KK-Ay diabetic mouse model at 0.4 to 1.1 mg added daily to normal chow pellets for 10 weeks by qRT-PCR analysis; type: functional, organism-based
Mus musculus [22] = organism: Mus musculus; assay: Effect on triglyceride concentration in liver of KK-Ay diabetic mouse model at 0.4 to 1.1 mg added daily to normal chow pellets for 10 weeks; type: functional, organism-based
Mus musculus [23] = organism: Mus musculus; assay: Antidiabetic activity in KK-Ay diabetic mouse model assessed as reduction in HOMA-IR levels at 0.4 mg added daily to normal chow pellets for 10 weeks; type: functional, organism-based
Mus musculus [24] = organism: Mus musculus; assay: Effect on PKCdelta mRNA expression levels in adipose tissue of KK-Ay diabetic mouse model at 0.4 to 1.1 mg added daily to normal chow pellets for 10 weeks by qRT-PCR analysis; type: functional, organism-based
Mus musculus [25] = organism: Mus musculus; assay: Effect on FABP4 mRNA expression levels in muscle of KK-Ay diabetic mouse model at 0.4 to 1.1 mg added daily to normal chow pellets for 10 weeks by qRT-PCR analysis; type: functional, organism-based
Mus musculus [26] = organism: Mus musculus; assay: Effect on PPARgamma mRNA expression levels in muscle of KK-Ay diabetic mouse model at 0.4 to 1.1 mg added daily to normal chow pellets for 10 weeks by qRT-PCR analysis; type: functional, organism-based
Mus musculus [27] = organism: Mus musculus; assay: Toxicity in KK-Ay diabetic mouse model assessed as increase in body weight at 1.1 mg added daily to normal chow pellets for 8 weeks; type: organism-based; conditions: in vivo, po, 1344 h
Mus musculus [28] = organism: Mus musculus; assay: Effect on SOD1 mRNA expression levels in liver of KK-Ay diabetic mouse model at 0.4 to 1.1 mg added daily to normal chow pellets for 10 weeks by qRT-PCR analysis; type: functional, organism-based
Mus musculus [29] = organism: Mus musculus; assay: Effect on FAS mRNA expression levels in muscle of KK-Ay diabetic mouse model at 0.4 to 1.1 mg added daily to normal chow pellets for 10 weeks by qRT-PCR analysis; type: functional, organism-based
Mus musculus [30] = organism: Mus musculus; assay: Antidiabetic activity in KK-Ay diabetic mouse model assessed as decrease in GCRG mRNA expression levels in muscle tissue at 0.4 mg added daily to normal chow pellets for 10 weeks by qRT-PCR analysis; type: functional, organism-based
Mus musculus [31] = organism: Mus musculus; assay: Effect on SOD2 mRNA expression levels in adipose tissue of KK-Ay diabetic mouse model at 0.4 to 1.1 mg added daily to normal chow pellets for 10 weeks by qRT-PCR analysis; type: functional, organism-based
Mus musculus [32] = organism: Mus musculus; assay: Antidiabetic activity in KK-Ay diabetic mouse model assessed as decrease in plasma triglycerides level at 0.14 to 1.1 mg added daily to normal chow pellets for 10 weeks by colorimetric analysis; type: functional, organism-based
Mus musculus [33] = organism: Mus musculus; assay: Effect on LXRalpha mRNA expression levels in adipose tissue of KK-Ay diabetic mouse model at 0.4 to 1.1 mg added daily to normal chow pellets for 10 weeks by qRT-PCR analysis; type: functional, organism-based

Measured: Activity

C[C@@]12CCc3occc3[C@H]1CC[C@@]13C[C@H](CC[C@H]12)[C@@](O)(CO)C3
Non-Toxic: Mus musculus [9]
active: Mus musculus [30]
44%: Mus musculus [3]
> 3 g: Mus musculus [27]
inactive: all other assays above
